Experimental findings from US20210106567A1, “COMPOSITIONS AND METHODS FOR INHIBITING CARP-1 BINDING TO NEMO” (United States Government As Represented By The Department …, priority 2019, published 2021) are described below.

Usually pIC50 stands for −log10 of the IC50, conventionally taken in molar units.

Series [1] deals with T1, NEMO interaction with RIPK1 (Homo sapiens, UniProt Q13546+Q9Y6K9).
T1 construct: expressed in transfected cells; host or cells: HBC cells stably expressing Gst-NEMO
In words: IP-WB in Gst-NEMO expressing HBC cells, RIPK1. The series is classed as cell-based. The conditions noted are these: alone or in combination with Adriamycin. The procedure:
The biochemical mechanism of inhibition of CARP-1 (551-580; SEQ ID NO: 6) binding with NEMO (221-261; SEQ ID NO: 2) by SNI-1 was assessed. E. coli expressed Gst-NEMO (221-261; SEQ ID NO: 2) and His-TAT-HA-CARP-1 (551-580; SEQ ID NO: 6) peptides in IP-WB assays were used. […] Since Adriamycin activates ATM to regulate canonical NF-κB and DSB repair pathways, it remains to be clarified whether CARP-1 regulates RIPK1 signaling dependent and/or independent of ATM.
(§1) The cells were lysed to prepare protein extracts.

A further series in a line: MTT cell viability. The conditions noted are these: human, MDA-MB-231 TNBC cells; 1.0, 2.5, 5.0, or 10.0 μM over 24 h; read-out: loss of viability. It counts as cell-based, human.
The test system of a further series is MDA-MB-231 TNBC cells. In words: MTT cell viability. It counts as cell-based, human. The settings on record: Homo sapiens, MDA-MB-231, 72 h.
The test system of series [2] is follicular cell lymphoma cells. The series can be described thus: Cell viability, lymphoma. The series is classed as cell-based. The settings on record: Homo sapiens; read-out: IC50, reduced viabilities.
Series [3] concerns CARP-1 levels, cleavage of PARP or caspase-3. In words: Western blot for apoptosis markers. It counts as cell-based.
Description: as §1
In general terms: A western blot detects proteins with antibodies after separation by electrophoresis.

The subject of another series is human TNBC cells. In words: Cytokine ELISA of culture media. The series is classed as cell-based. The settings on record: versus untreated cells.
Series [4] has as its system parental and chemo-resistant human and murine TNBC cells and parental renal cancer cells. In words: Cytokine ELISA of culture media, chemotherapy-induced secretion. The series is classed as cell-based. The conditions noted are these: SNI-1 with Adriamycin or Cisplatin. On the technique in general: In an ELISA, binding on a coated surface is turned into a signal by an enzyme label.

A further series deals with MDA-MB-468 TNBC cells. The series can be described thus: MTT cell viability, SNI-1 analogs. The series is classed as cell-based, human. The settings on record: 24 h. Here is the method:
FIGS. 22A-B show SNI-1 analogs enhance Adriamycin inhibition of TNBC cell growth. FIGS. 22A-B show cells treated with indicated dose of noted agent for 24 h, and their viabilities determined by MTT assay. Columns represent means of three independent experiments; bars, SE.
MDA-MB-468 TNBC cells were next treated with each of the analog in vitro as a single agent or in combination with Adriamycin in vitro.

In series [5] the test system is SUM149 cell-derived xenografts. In words: SUM149 BRCA1-mutant TNBC xenografts in NCr-SCID mice. The settings on record: 70 mg/kg daily×13, i.p. (parent) or i.v. (sodium salt). It counts as in vivo. An excerpt: BRCA1 mutant TNBC Tumor Model: Testing for germline BRCA1/2 mutations permits identification of BRCA1/2 status as clinically relevant in the selection of therapy for patients already diagnosed with breast cancer. BRCA status predicts responsiveness to platinum-based chemotherapy, as well as to inhibitors of poly(ADP-ribose) polymerase (PARP) in breast and ovarian cancers. […] A related objective of this pilot study was to determine whether and to the extent SNI-1 or its water soluble, di-sodium derivative will elicit effects in vivo.

pIC50: −log10 of the molar value.

T1 sequence (Q9Y6K9 whole entry): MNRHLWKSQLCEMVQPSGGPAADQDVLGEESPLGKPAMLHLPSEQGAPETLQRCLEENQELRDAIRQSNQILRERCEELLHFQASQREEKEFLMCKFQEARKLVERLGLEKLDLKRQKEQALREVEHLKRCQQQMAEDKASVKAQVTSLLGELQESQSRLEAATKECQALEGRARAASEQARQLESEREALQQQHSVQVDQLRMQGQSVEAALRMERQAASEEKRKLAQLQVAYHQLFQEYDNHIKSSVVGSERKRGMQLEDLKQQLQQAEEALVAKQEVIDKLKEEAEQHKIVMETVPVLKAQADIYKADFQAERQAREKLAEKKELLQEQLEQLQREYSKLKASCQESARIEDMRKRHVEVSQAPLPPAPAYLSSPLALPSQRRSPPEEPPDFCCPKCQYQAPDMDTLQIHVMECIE
T1 sequence (Q13546 whole entry): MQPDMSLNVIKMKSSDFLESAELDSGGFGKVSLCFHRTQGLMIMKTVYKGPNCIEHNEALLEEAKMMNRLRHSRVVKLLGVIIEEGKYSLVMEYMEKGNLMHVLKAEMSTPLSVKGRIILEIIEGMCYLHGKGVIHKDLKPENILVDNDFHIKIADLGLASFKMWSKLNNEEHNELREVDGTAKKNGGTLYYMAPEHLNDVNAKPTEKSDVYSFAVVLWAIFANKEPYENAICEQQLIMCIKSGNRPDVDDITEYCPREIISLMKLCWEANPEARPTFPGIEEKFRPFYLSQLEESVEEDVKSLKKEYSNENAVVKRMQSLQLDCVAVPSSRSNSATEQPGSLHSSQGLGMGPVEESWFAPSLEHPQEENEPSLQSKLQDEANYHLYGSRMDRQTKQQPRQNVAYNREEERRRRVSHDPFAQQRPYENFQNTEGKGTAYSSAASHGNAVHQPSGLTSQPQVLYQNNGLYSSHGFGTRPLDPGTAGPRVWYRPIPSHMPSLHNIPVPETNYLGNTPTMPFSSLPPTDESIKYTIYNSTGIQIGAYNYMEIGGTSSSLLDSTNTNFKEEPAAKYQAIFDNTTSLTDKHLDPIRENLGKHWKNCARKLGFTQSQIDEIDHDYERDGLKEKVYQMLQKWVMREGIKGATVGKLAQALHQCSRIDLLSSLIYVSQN
Description for MDA-MB-231 TNBC cells: The murine TNBC cell line 4T1 that was derived from a spontaneously arising BALB/c mammary tumor were obtained from the Karmanos Cancer Institute (KCl), and were maintained in culture (Cheriyan et al. (2016) Oncotarget 7, 73370-73388). […] The cell culture media were also supplemented with 10% FBS, 100 units/ml of penicillin, and 100 μg/ml of streptomycin, and the cells were maintained at 37° C. and 5% CO2. For cell growth and MTT studies, the cells were cultured in fresh media with 5%-10% FBS prior to their treatments with various agents.
Cell Viability, Immunoprecipitation and Western Blot assays: 500-1000 cells were seeded in each well of 96 well plate and then either untreated (control) or treated with various agents for noted times. After treatment, MTT reagent was added at 0.5 mg/ml concentration for 2-4 hours at 37° C. DMSO was added to solubilize formazan and the plate was read at 570 nm in a plate reader. The histograms indicating levels of cell viability were generated by plotting the net absorbances (Rishi et al. (2003) J Biol Chem 278, 33422-33435; and Rishi et al. (2006) J Biol Chem 281, 13188-13198).

As to `Cc1ccc(-n2nnnc2SCC(=O)c2ccc(O)c(O)c2)cc1` [SNI-1, 1-(3,4-dihydroxyphenyl)-2-{(1-(4-methylphenyl)-1H-tetrazol-5-yl)thio}ethanone], the “NEMO interaction with RIPK1 (IP-WB)” value in [1] is listed as “not with RIPK1”. The cytotoxicity at 24 h in “MTT cell viability” is 10 to 20%. The pIC50 was 5.35 to 5.40 with MDA-MB-231 TNBC cells and roughly 5.12 in [2]. For the same compound, in series [3], the “apoptosis (elevated CARP-1 levels, cleavage of PARP or caspase-3)” value is reported as “stimulation of apoptosis”. In addition, the “levels of TNFα and IL-8 in culture media” value in the series on human TNBC cells is “modest increase”. In addition, the “secretion of chemotherapy-induced TNFα, IL-8, and IL-1β” value in series [4] is “robust decline in secretion”. In addition, the “loss of cell viability in combination with Adriamycin versus Adriamycin alone” value in the series on MDA-MB-468 TNBC cells is listed as “greater loss of cell viability”. Besides, the tolerability entry in [5] is recorded as “well tolerated”.
